Assay results: patent US8952024B2, “Herbicidal pyrimidone derivatives” (E I du Pont de Nemours and Company, priority 2009, dated 2015)

Experiments:
Assay type in all cases: in vivo
rice (Oryza sativa) = test: Test B flooded paddy test; conditions: for Plant response rating, Rice: Flood (flooded paddy test), 13 to 15 days
Outline: (§1)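 Each compound is added to standing floodwater (3 cm above soil, maintained) in pots of 2-leaf-stage plants; greenhouse exposure lasts 13–15 d before visual comparison with controls on a 0–100 control scale.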

[1] = tested on: umbrella sedge (Cyperus difformis); test: Test B flooded paddy test; conditions: for Plant response rating, Sedge, Umbrella: Flood (flooded paddy test), 13 to 15 days
Outline: as §1

[2] = tested on: giant foxtail (Setaria faberii); test: Test B pre-/postemergence plant response
Outline: (§2)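 Each species received compound formulated in non-phytotoxic solvent with surfactant, either at planting into a loam and sand blend or as a foliar spray once plants reached 2 to 18 cm in peat-based medium. Plants stayed in the greenhouse 13 to 15 days before visual evaluation against controls, scored 0 (no effect) to 100 (complete control).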

corn (Zea mays) = test: Test B pre-/postemergence plant response
Outline: as §2

[3] = tested on: pigweed (Amaranthus retroflexus); test: Test B pre-/postemergence plant response
Outline: as §2

[4] = tested on: Surinam grass (Brachiaria decumbens); test: Test B pre-/postemergence plant response
Outline: as §2

[5] = tested on: ragweed (common ragweed, Ambrosia elatior); test: Test B pre-/postemergence plant response
Outline: as §2

[6] = tested on: johnsongrass (Sorghum halepense); test: Test B pre-/postemergence plant response
Outline: as §2

wild oat (Avena fatua) = test: Test B pre-/postemergence plant response
Outline: as §2

[7] = tested on: lambsquarters (Chenopodium album); test: Test B pre-/postemergence plant response
Outline: as §2

[8] = tested on: goosegrass (Eleusine indica); test: Test B pre-/postemergence plant response
Outline: as §2

[9] = tested on: blackgrass (Alopecurus myosuroides); test: Test B pre-/postemergence plant response
Outline: as §2

[10] = tested on: green foxtail (Setaria viridis); test: Test B pre-/postemergence plant response
Outline: as §2

[11] = 250 g ai/ha, flooded paddy test, visual rating on 0 to 100 scale (0 no effect, 100 complete control) after 13 to 15 days
[12] = 62 g ai/ha, scale of 0 to 100 where 0 is no effect and 100 is complete control
[13] = 125 g ai/ha, scale 0 to 100, 0 is no effect, 100 is complete control
[14] = Flood, 31 g ai/ha, scale 0 to 100 (0 no effect, 100 complete control)
[15] = Postemergence, 31 g ai/ha, 0 to 100 scale (0 no effect, 100 complete control)
[16] = Postemergence, 62 g ai/ha, scale 0 to 100 (0 no effect, 100 complete control)
[17] = Postemergence, 125 g ai/ha, scale 0 (no effect) to 100 (complete control), 13 to 15 days
[18] = Postemergence, 250 g ai/ha, scale 0 to 100 (0 no effect, 100 complete control), 13 to 15 days
[19] = Preemergence, 31 g ai/ha, scale 0 to 100 (0 no effect, 100 complete control)
[20] = Preemergence, 62 g ai/ha, scale 0 to 100 (0 no effect, 100 complete control)
[21] = Preemergence, 125 g ai/ha, scale 0 to 100, 0 no effect, 100 complete control
[22] = Preemergence, 250 g ai/ha, 0 to 100 scale

## CCc1ccccc1-n1c(-c2ccccc2)ncc(C(=O)C2=C(O)CCCC2=O)c1=O [Compound 255]
Rice (Oryza sativa); [11]
  Plant response rating, Flood, Rice: 0
Rice (Oryza sativa); [12]
  Plant response rating, Rice: 0
Rice (Oryza sativa); [13]
  Plant response rating, Rice: 0
Rice (Oryza sativa); [14]
  Rice plant response rating: 0
[1]; [11]
  Plant response rating, Flood, Sedge, Umbrella: 60
[1]; [12]
  Plant response rating, Sedge, Umbrella: 20
[1]; [13]
  Plant response rating, Sedge, Umbrella: 50
[1]; [14]
  Sedge, Umbrella plant response rating: 0
[2]; [15]
  Plant response rating, Foxtail, Giant: 95
[2]; [16]
  Plant response rating, Foxtail, Giant: 98
[2]; [17]
  Plant response rating, Foxtail, Giant: 98
[2]; [18]
  Plant response rating, Foxtail, Giant: 100
[2]; [19]
  Plant response rating, Foxtail, Giant: 15
[2]; [20]
  Plant response rating, Foxtail, Giant: 45
[2]; [21]
  Plant response rating, Foxtail, Giant: 55
[2]; [22]
  Foxtail, Giant plant response rating: 98
Corn (Zea mays); [15]
  Plant response rating, Corn: 60
Corn (Zea mays); [16]
  Plant response rating, Corn: 75
Corn (Zea mays); [17]
  Plant response rating, Corn: 85
Corn (Zea mays); [18]
  Plant response rating, Corn: 85
Corn (Zea mays); [19]
  Plant response rating, Corn: 0
Corn (Zea mays); [20]
  Plant response rating, Corn: 0
Corn (Zea mays); [21]
  Plant response rating, Corn: 0
Corn (Zea mays); [22]
  Corn plant response rating: 0
[3]; [15]
  Plant response rating, Pigweed: 80
[3]; [16]
  Plant response rating, Pigweed: 98
[3]; [17]
  Plant response rating, Pigweed: 98
[3]; [18]
  Plant response rating, Pigweed: 100
[3]; [19]
  Plant response rating, Pigweed: 100
[3]; [20]
  Plant response rating, Pigweed: 100
[3]; [21]
  Plant response rating, Pigweed: 100
[3]; [22]
  Pigweed plant response rating: 100
[4]; [15]
  Plant response rating, Surinam Grass: 80
[4]; [16]
  Plant response rating, Surinam Grass: 80
[4]; [17]
  Plant response rating, Surinam Grass: 90
[4]; [18]
  Plant response rating, Surinam Grass: 90
[4]; [19]
  Plant response rating, Surinam Grass: 65
[4]; [20]
  Plant response rating, Surinam Grass: 85
[4]; [21]
  Plant response rating, Surinam Grass: 95
[4]; [22]
  Surinam Grass plant response rating: 100
[5]; [15]
  Plant response rating, Ragweed: 50
[5]; [16]
  Plant response rating, Ragweed: 90
[5]; [17]
  Plant response rating, Ragweed: 95
[5]; [18]
  Plant response rating, Ragweed: 95
[5]; [19]
  Plant response rating, Ragweed: 65
[5]; [20]
  Plant response rating, Ragweed: 75
[5]; [21]
  Plant response rating, Ragweed: 85
[5]; [22]
  Ragweed plant response rating: 100
[6]; [15]
  Plant response rating, Johnsongrass: 80
[6]; [16]
  Plant response rating, Johnsongrass: 85
[6]; [17]
  Plant response rating, Johnsongrass: 90
[6]; [18]
  Plant response rating, Johnsongrass: 95
[6]; [19]
  Plant response rating, Johnsongrass: 0
[6]; [20]
  Plant response rating, Johnsongrass: 60
[6]; [21]
  Plant response rating, Johnsongrass: 75
[6]; [22]
  Johnsongrass plant response rating: 98
Wild oat (Avena fatua); [15]
  Plant response rating, Oat, Wild: 65
Wild oat (Avena fatua); [16]
  Plant response rating, Oat, Wild: 80
Wild oat (Avena fatua); [17]
  Plant response rating, Oat, Wild: 85
Wild oat (Avena fatua); [18]
  Plant response rating, Oat, Wild: 90
Wild oat (Avena fatua); [19]
  Plant response rating, Oat, Wild: 0
Wild oat (Avena fatua); [20]
  Plant response rating, Oat, Wild: 0
Wild oat (Avena fatua); [21]
  Plant response rating, Oat, Wild: 60
Wild oat (Avena fatua); [22]
  Oat, Wild plant response rating: 90
[7]; [15]
  Plant response rating, Lambsquarters: 90
[7]; [16]
  Plant response rating, Lambsquarters: 95
[7]; [17]
  Plant response rating, Lambsquarters: 98
[7]; [18]
  Plant response rating, Lambsquarters: 100
[7]; [19]
  Plant response rating, Lambsquarters: 98
[7]; [20]
  Plant response rating, Lambsquarters: 100
[7]; [21]
  Plant response rating, Lambsquarters: 100
[7]; [22]
  Lambsquarters plant response rating: 100
[8]; [15]
  Plant response rating, Goosegrass: 90
[8]; [16]
  Plant response rating, Goosegrass: 90
[8]; [17]
  Plant response rating, Goosegrass: 95
[8]; [18]
  Plant response rating, Goosegrass: 98
[8]; [19]
  Plant response rating, Goosegrass: 80
[8]; [20]
  Plant response rating, Goosegrass: 98
[8]; [21]
  Plant response rating, Goosegrass: 100
[8]; [22]
  Goosegrass plant response rating: 100
[9]; [15]
  Plant response rating, Blackgrass: 5
[9]; [16]
  Plant response rating, Blackgrass: 5
[9]; [17]
  Plant response rating, Blackgrass: 10
[9]; [18]
  Plant response rating, Blackgrass: 60
[9]; [19]
  Plant response rating, Blackgrass: 0
[9]; [20]
  Plant response rating, Blackgrass: 20
[9]; [21]
  Plant response rating, Blackgrass: 40
[9]; [22]
  Blackgrass plant response rating: 60
[10]; [15]
  Plant response rating, Foxtail, Green: 85
[10]; [16]
  Plant response rating, Foxtail, Green: 90
[10]; [17]
  Plant response rating, Foxtail, Green: 90
[10]; [18]
  Plant response rating, Foxtail, Green: 90
[10]; [19]
  Plant response rating, Foxtail, Green: 0
[10]; [20]
  Plant response rating, Foxtail, Green: 80
[10]; [21]
  Plant response rating, Foxtail, Green: 80
[10]; [22]
  Foxtail, Green plant response rating: 100
